29 molecules from patent publication US4091006A, “Esters of 3-hydroxyindone compounds” (priority 1975, dated 1978) can be followed below.

For test [1], the system named is egg of the two-spotted mite. The test can be described thus: Mite Ovicide Test. More on the design: key to Mite Ova rating: 1: no mortality; 3: an approximately 50% mortality; 5: 100% mortality. The settings on record: spray on eggs, 4 days. Format: in vivo, Tetranychus urticae (Koch). An excerpt: (§1) The test procedures were as follows:
The plants were allowed to dry thoroughly.
(§2) Compositions were rated on the basis of percent kill with a rating of 1 indicating no mortality; 3 signifying an approximately 50% mortality and 5 indicating 100% mortality at the indicated dosage.

Test [2] relates to adults and nymphal stages of the two-spotted mite. Description: Mite Foliage Spray Test. It counts as in vivo, Tetranychus urticae (Koch). Also noted: key: 1: no mortality; 3: an approximately 50% mortality; 5: 100% mortality. Conditions: 4 days.
Description: as §1, §2

The subject of test [3] is Perennial rye grass, crabgrass, red root pigweed, mustard. Description: Preliminary Herbicide Seed Germination Test. The settings on record: each rated 1 (no injury) to 5 (no seedlings emerged).
Description: The thus-prepared stock suspension contained 0.5 percent by weight of compound. The test concentrations employed in the tests described hereinbelow were obtained by diluting the stock suspension with water. The test procedures were as follows:
The following seeds were used in this test:
Crabgrass -- Digitaria san-
Mustard -- Brassica pincea var.
Each of above mixtures is rolled separately in 5 gallon containers for approximately one-half hour on ball mill to insure uniform mixing of seeds and soil. For each compound four 3-inch pots are filled with soil to within 11/2 inches of top of pots. To 2 of these pots are added 70 cc. of Mixture I. To the remaining 2 pots are added 70 cc. of Mixture II. The seed-soil mixture is tamped firmly, and the pots are removed to the greenhouse and watered lightly. About 2 hours after planting, 25 milliliters of the test formulation were added to each of 2 pots for each soil-seed mixture; i.e., one replicate of each seed mixture per concentration. An equal volume of a water solution containing acetone and an emulsifier in the same concentration as the herbicidal mixture but without the candidate herbicide is also added to each of the soil-seed mixtures. These pots are used as check or control units. The test compounds are formulated by standard procedure of solution in acetone, addition of an emulsifier, and dilution with water. Tests were conducted on all compositions at low concentration (100 ppm.). Certain compositions were also tested at high concentration (1000 ppm). The pots were held in the greenhouse and watered lightly until results were taken. Ten to twelve days after application of chemical, injury is noted for each species by comparing treated vs. untreated pots. Ratings are made at both the high and the low concentrations (1000 ppm and 100 ppm) according to the following designations:
4 = few seedlings emerged and/or very severe stunting
3 = moderate reduction in stand and/or moderate stunting
2 = very slight reduction in stand and/or slight stunting
1 = no injury; seedlings appear no different with respect to stand or growth than untreated controls
Accordingly, the maximum rating for one test seed species tested at both high and low concentration is 10 and the maximum possible total preemergence rating is 40 (10 for each of the four test seed species). […] In some tests the crabgrass experiment was omitted. In these tests the maximum total rating for species tested at both high and low concentrations is 30 and 15 for species tested only at low concentrations.
[4] abbreviates: rating/maximum 20: 100 ppm only, four species.
[5] abbreviates: rating/maximum 40: 100 and 1000 ppm, four species, 10-12 days.
Where [6] appears, read: rating/maximum 30: 100 and 1000 ppm, crabgrass omitted.
[7] abbreviates: rating/maximum 15: 100 ppm only, crabgrass omitted.

Regarding `Cc1cc(C)c(C2=C(OC(=O)c3cccnc3)c3ccccc3C2=O)c(C)c1` [2-(2',4',6'-Trimethylphenyl)-3-(3-pyridinecarbonyloxy)indone], the “Mite Ova rating” value in test [1] was 5 (100% mortality). In addition, the “Mite Adult rating” value in test [2] is 5 (100% mortality). Moreover, the “Herbicide (total preemergence rating)” value in test [3] (setting [4]) was 18/20.

Regarding `Cc1cc(C)c(C2=C(OC(=O)c3c(Cl)ccc(Cl)c3Cl)c3ccccc3C2=O)c(C)c1` [3-(2,3,6-Trichlorobenzoyloxy)-2-(2',4',6'-trimethylphenyl)indone], the “Mite Ova rating” value in test [1] is reported as 3 (an approximately 50% mortality). In addition, the “Mite Adult rating” value in test [2] amounted to 1. Moreover, in test [3] (setting [5]), the “Herbicide (total preemergence rating)” value is 21/40.

In the case of `CCCCCCCCCCCCCCCCCC(=O)OC1=C(c2ccc(C)cc2C)C(=O)c2ccccc21` [2-(2',4'-Dimethylphenyl)-3-(stearoyloxy)indone], in test [1], the “Mite Ova rating” value is on record as 5 (100% mortality). The “Mite Adult rating” value in test [2] is listed as 3 (an approximately 50% mortality). Moreover, the “Herbicide (total preemergence rating)” value in test [3] (setting [4]) is on record as 14/20.

`COc1cccc(C(=O)OC2=C(c3c(C)cc(C)cc3C)C(=O)c3ccccc32)c1` [3-(3-Methoxybenzoyloxy)-2-(2',4',6'-trimethylphenyl)indone]: the “Mite Ova rating” value in test [1] was 5 (100% mortality). Moreover, the “Mite Adult rating” value in test [2] is listed as 5 (100% mortality). In test [3] (setting [6]), the “Herbicide (total preemergence rating)” value was 25/30.

On to `CC(C)c1cccc(C(C)C)c1C1=C(OC(=O)C(C)(C)C)c2ccccc2C1=O` [2-(2'6'-diisopropyl)phenyl-3-pivaloyloxyindone], for which, in test [1], the “Mite Ova rating” value came to 1. Further, in test [2], the “Mite Adult rating” value was 1. The “Herbicide (total preemergence rating)” value in test [3] (setting [7]) is 3/15.

Consider `Cc1cccc(Cl)c1C1=C(OC(=O)C(C)(C)C)c2ccccc2C1=O` [2-(2'-Chloro-6'-methylphenyl)-3-(pivaloyloxy)indone], for which, in test [1], the “Mite Ova rating” value is given as 5 (100% mortality). Moreover, the “Mite Adult rating” value in test [2] is 5 (100% mortality). In addition, the “Herbicide (total preemergence rating)” value in test [3] (setting [5]) is reported as 33/40.

As for `CC(C)(C)C(=O)OC1=C(c2ccccc2)C(=O)c2ccccc21` [2-Phenyl-3-(pivaloyloxy)indone], in test [1], the “Mite Ova rating” value worked out at 1. For the same molecule, in test [2], the “Mite Adult rating” value stood at 1. Besides, the “Herbicide (total preemergence rating)” value in test [3] (setting [5]) is reported as 8/40.

With `CCCCN(C)C(=O)OC1=C(c2c(C)cc(C)cc2C)C(=O)c2ccccc21` [2-(2',4',6'-Trimethylphenyl)-3-(N-butyl-N-methylcarbamoyloxy)indone], the “Mite Ova rating” value in test [1] is 1. Moreover, the “Mite Adult rating” value in test [2] turned out to be 1. Also, the “Herbicide (total preemergence rating)” value in test [3] (setting [4]) is given as 4/20.

As for `Cc1cc(C)c(C2=C(OC(=O)c3ccc(Cl)c(Cl)c3)c3ccccc3C2=O)c(C)c1` [3-(3,4-Dichlorobenzoyloxy)-2-(2',4',6'-trimethylphenyl)indone], the “Mite Ova rating” value in test [1] is 5 (100% mortality). In addition, in test [2], the “Mite Adult rating” value is listed as 5 (100% mortality). Also, the “Herbicide (total preemergence rating)” value in test [3] (setting [5]) was 32/40.

For the molecule `Cc1cc(C)c(C2=C(OC(=O)c3ccccc3C)c3ccccc3C2=O)c(C)c1` [3-(2-Methylbenzoyloxy)-2-(2',4',6'-trimethylphenyl)indone], the “Mite Ova rating” value in test [1] is 5 (100% mortality). Also, the “Mite Adult rating” value in test [2] is 5 (100% mortality). Moreover, the “Herbicide (total preemergence rating)” value in test [3] (setting [6]) is 19/30.

Take `CC(C)c1ccc(C2=C(OC(=O)C(C)(C)C)c3ccccc3C2=O)cc1` [2-(4'-isopropylphenyl)-3-(pivaloyloxy)indone]: the “Mite Ova rating” value in test [1] came out at 1. The “Mite Adult rating” value in test [2] is recorded as 1. Moreover, the “Herbicide (total preemergence rating)” value in test [3] (setting [4]) is 4/20.

On to `Cc1ccccc1C1=C(OC(=O)C(C)(C)C)c2ccccc2C1=O` [2-(2'-Methylphenyl)-3-(pivaloyloxy)indone], for which the “Mite Ova rating” value in test [1] was 5 (100% mortality). In addition, the “Mite Adult rating” value in test [2] is recorded as 5 (100% mortality). In test [3] (setting [5]), the “Herbicide (total preemergence rating)” value is reported as 20/40.

In the case of `Cc1cc(C)c(C2=C(OC(=O)Cc3ccccc3)c3ccccc3C2=O)c(C)c1` [2-(2',4',6'-Trimethylphenyl)-3-(phenylacetoxy)indone], the “Mite Ova rating” value in test [1] is on record as 5 (100% mortality). Also, the “Mite Adult rating” value in test [2] is on record as 5 (100% mortality). The “Herbicide (total preemergence rating)” value in test [3] (setting [4]) is recorded as 19/20.

Regarding `CCCC(C)C(=O)OC1=C(c2ccccc2Cl)C(=O)c2ccccc21` (stereo not drawn) [2-(2'-Chlorophenyl)-3-(2-methylpentanoyloxy)indone], the “Mite Ova rating” value in test [1] is listed as 5 (100% mortality). The “Mite Adult rating” value in test [2] was 5 (100% mortality). Also, in test [3] (setting [4]), the “Herbicide (total preemergence rating)” value is on record as 4/20.

With `Cc1cccc(C(=O)OC2=C(c3c(Cl)cccc3Cl)C(=O)c3ccccc32)c1` [3-(3-Methylbenzoyloxy)-2-(2',6'-dichlorophenyl)indone], in test [1], the “Mite Ova rating” value is 5 (100% mortality). Besides, the “Mite Adult rating” value in test [2] is listed as 5 (100% mortality). For the same molecule, in test [3] (setting [5]), the “Herbicide (total preemergence rating)” value is recorded as 29/40.

On to `CCc1cccc(C)c1C1=C(OC(=O)C(C)(C)C)c2ccccc2C1=O` [2-(2'-Ethyl-6'-methylphenyl)-3-(pivaloyloxy)indone], for which, in test [1], the “Mite Ova rating” value is on record as 5 (100% mortality). In test [2], the “Mite Adult rating” value is 5 (100% mortality). The “Herbicide (total preemergence rating)” value in test [3] (setting [7]) is listed as 14/15.

As for `Cc1cc(C)c(C2=C(OC(=O)c3ccco3)c3ccccc3C2=O)c(C)c1` [2-(2',4',6'-Trimethylphenyl)-3-(2-furoyloxy)indone], the “Mite Ova rating” value in test [1] is listed as 5 (100% mortality). Also, the “Mite Adult rating” value in test [2] was 5 (100% mortality). Also, the “Herbicide (total preemergence rating)” value in test [3] (setting [4]) is listed as 17/20.

For the molecule `Cc1ccc(C(=O)OC2=C(c3c(Cl)cccc3Cl)C(=O)c3ccccc32)c(C)c1` [3-(2,4-Dimethylbenzoyloxy)-2-(2',6'-dichlorophenyl)indone], the “Mite Ova rating” value in test [1] is listed as 3 (an approximately 50% mortality). In addition, the “Mite Adult rating” value in test [2] is recorded as 1. Besides, the “Herbicide (total preemergence rating)” value in test [3] (setting [4]) is on record as 5/20.

With `Cc1cc(C)c(C2=C(OC(=O)N(C)C)c3ccccc3C2=O)c(C)c1` [2-(2',4',6'-Trimethylphenyl)-3-(dimethylcarbamoyloxy)indone], the “Mite Ova rating” value in test [1] is 5 (100% mortality). Besides, in test [2], the “Mite Adult rating” value is given as 3 (an approximately 50% mortality). The “Herbicide (total preemergence rating)” value in test [3] (setting [4]) is given as 14/20.

Take `Cc1cc(C)c(C2=C(OC(=O)OC3=C(c4c(C)cc(C)cc4C)C(=O)c4ccccc43)c3ccccc3C2=O)c(C)c1` [Bis[2-(2',4',6'-Trimethylphenyl)Indon-3-yl]Carbonate]: the “Mite Ova rating” value in test [1] was 5 (100% mortality). Also, the “Mite Adult rating” value in test [2] is 5 (100% mortality). In addition, the “Herbicide (total preemergence rating)” value in test [3] (setting [4]) is listed as 15/20.

Take `COc1ccc(C(=O)OC2=C(c3c(Cl)cccc3Cl)C(=O)c3ccccc32)cc1` [3-(4-Methoxybenzoyloxy)-2-(2',6'-dichlorophenyl)indone]: the “Mite Ova rating” value in test [1] was 5 (100% mortality). Moreover, the “Mite Adult rating” value in test [2] is on record as 5 (100% mortality). Further, the “Herbicide (total preemergence rating)” value in test [3] (setting [6]) is reported as 22/30.

Consider `Cc1cc(C)c(C2=C(OC(=O)Cl)c3ccccc3C2=O)c(C)c1` [2-(2',4',6'-Trimethylphenyl)-3-(chlorocarbonyloxy)indone], for which the “Mite Ova rating” value in test [1] is given as 5 (100% mortality). Further, in test [2], the “Mite Adult rating” value is 5 (100% mortality). Further, in test [3] (setting [4]), the “Herbicide (total preemergence rating)” value was 13/20.

On to `COc1cccc(OC)c1C(=O)OC1=C(c2c(Cl)cccc2Cl)C(=O)c2ccccc21` [3-(2,6-Dimethoxybenzoyloxy)-2-(2',6'-dichlorophenyl)indone], for which the “Mite Ova rating” value in test [1] is recorded as 1. Further, the “Mite Adult rating” value in test [2] is 1. Moreover, the “Herbicide (total preemergence rating)” value in test [3] (setting [7]) is reported as 12/15.

Turning to `CSCC(=O)OC1=C(c2c(C)cc(C)cc2C)C(=O)c2ccccc21` [2-(2',4',6'-Trimethylphenyl)-3-(methylthioacetoxy)indone], in test [1], the “Mite Ova rating” value was 5 (100% mortality). Besides, the “Mite Adult rating” value in test [2] is listed as 5 (100% mortality). Further, the “Herbicide (total preemergence rating)” value in test [3] (setting [4]) is 19/20.

Take `O=C1C(c2c(Cl)cccc2Cl)=C(OC(=O)c2c(Cl)cccc2Cl)c2ccccc21` [3-(2,6-Dichlorobenzoyloxy)-2-(2',6'-dichlorophenyl)indone]: the “Mite Ova rating” value in test [1] turned out to be 1. The “Mite Adult rating” value in test [2] was 1. The “Herbicide (total preemergence rating)” value in test [3] (setting [5]) is 8/40.

Consider `O=C(OC1=C(c2c(Cl)cccc2Cl)C(=O)c2ccccc21)c1ccc(Cl)cc1` [3-(4-Chlorobenzoyloxy)-2-(2',6'-dichlorophenyl)indone], for which the “Mite Ova rating” value in test [1] is listed as 5 (100% mortality). In test [2], the “Mite Adult rating” value was 5 (100% mortality). In test [3] (setting [6]), the “Herbicide (total preemergence rating)” value is 23/30.

Turning to `CCCCC(CC)C(=O)OC1=C(c2cccc3ccccc23)C(=O)c2ccccc21` (stereo not drawn) [3-(2-Ethylhexanoyloxy)-2-(1-Naphthyl)indone], the “Mite Ova rating” value in test [1] is given as 1. In test [2], the “Mite Adult rating” value worked out at 1. The “Herbicide (total preemergence rating)” value in test [3] (setting [4]) was 14/20.

Regarding “2-(2'-Methoxyphenyl)-3-(neodecanoyloxy)indone”, the “Mite Ova rating” value in test [1] worked out at 1. Besides, the “Mite Adult rating” value in test [2] is 1. Besides, the “Herbicide (total preemergence rating)” value in test [3] (setting [4]) is on record as 4/20.

As for `Cc1cc(C)c(C2=C(OC(=O)c3ccc([N+](=O)[O-])cc3)c3ccccc3C2=O)c(C)c1` [3-(4-Nitrobenzoyloxy)-2-(2',4',6'-trimethylphenyl)indone], the “Mite Ova rating” value in test [1] is given as 5 (100% mortality). For the same molecule, the “Mite Adult rating” value in test [2] was 5 (100% mortality). In addition, the “Herbicide (total preemergence rating)” value in test [3] (setting [6]) is on record as 26/30.
